How the values were obtained:
Type in all cases: cell-based
[1] = tested on: 1345 tomato (an LE-ACS-2 suppressant) leaf explants; assay: GUS assay of SSR pPO7110 in precultured leaf explants, 1345 tomato
Procedure: (§1) Two 4 mm discs were cut from each leaf and placed into a solution of Agrobacteria harboring either the suppression-sensitive GUS reporter construct pPO7110 or a control, nonsuppression-sensitive GUS construct, such as pPO7113, that lacks LE-ACS-2 sequences but is identical in every other respect. The Agrobacteria were previously grown in minimal medium containing sucrose and tetracycline at 1 mg/l to an apparent optical density of about 0.2 at 550 nm. Cultures at densities ranging from 0.1-0.4 were used, but the final density was always adjusted to 0.2 at 550 nm using growth medium. Discs were incubated with the Agrobacteria for 0.5-1.5 minutes, then removed and placed on sterile filter paper that was placed on top of tomato cocultivation medium (MS salts with IAA @ 0.05 mg/l, zeatin @ 1 mg/l and 100 μM acetosyringone and 1% gelrite).
(§2) The plates were incubated at 28° C. in the dark for 2.5 days whereupon the discs were removed and stained for GUS activity using 5-bromo-4-chloro-3-indolyl […] (X-Gluc). The discs were vacuum infiltrated for 2 minutes with the substrate solution containing 100 mM potassium phosphate pH 7.0, 10 mM EDTA, 2 mM potassium ferricyanide, 2 mM potassium ferrocyanide, 500 mg/1 X-Gluc, and 0.1% Triton X-100. Incubation was continued overnight (about 14-16 hr) at 37° C. and the plates were visually inspected for the presence of the insoluble blue precipitate a product of the GUS enzyme acting on the X-Gluc substrate. Tissues derived from nontransformed plants or transformed plants not displaying sense suppression will show the presence of a blue precipitate indicative of GUS activity while tissue derived from plants in the suppressed state will show no or comparatively little blue precipitate.
(§3) Strawberry plants which were continuously cultured in axenic conditions in vitro are used as a source of leaf explants. No ethanol dip or other form of surface sterilization was done on the strawberry leaves. […] This preculture step was carried out under lights at 28° C. for 4 days.
(§4) Three different concentrations of acetyosyringone were used in the preculture medium, 100 μM, 250 μM and 1000 μM.

strawberry leaf explants = assay: GUS assay in precultured leaf explants, strawberry
Procedure: as §1, §2, §3, §4

[2] = tested on: control tomato (line 91103, nontransformed control) leaf explants; assay: GUS assay of SSR pPO7110 in precultured leaf explants, control tomato
Procedure: as §1, §2, §3, §4

[3] = 1 mg/l hormone in preculture/cocultivation medium, 0-10 scale
[4] = vac 100AS (100 μM acetosyringone in preculture medium)
[5] = vac 250AS (250 μM acetosyringone)
[6] = vac 1000AS (1000 μM acetosyringone)

| Compound | GUS Assay Results, visual rating of GUS staining (mean in parentheses) [1, 3] | GUS Assay Results, visual rating of GUS staining (mean in parentheses) (strawberry leaf explants; [3]) | GUS Assay Results, visual rating of GUS staining (mean in parentheses) [2, 3] | GUS Assay Results, visual rating of GUS staining (mean in parentheses) [1, 4] | GUS Assay Results, visual rating of GUS staining (mean in parentheses) [1, 5] | GUS Assay Results, visual rating of GUS staining (mean in parentheses) [1, 6] | GUS Assay Results, visual rating of GUS staining (mean in parentheses) (strawberry leaf explants; [4]) | GUS Assay Results, visual rating of GUS staining (mean in parentheses) (strawberry leaf explants; [5]) | GUS Assay Results, visual rating of GUS staining (mean in parentheses) (strawberry leaf explants; [6]) | GUS Assay Results, visual rating of GUS staining (mean in parentheses) [2, 4] | GUS Assay Results, visual rating of GUS staining (mean in parentheses) [2, 5] | GUS Assay Results, visual rating of GUS staining (mean in parentheses) [2, 6] | GUS Assay Results, visual rating of GUS staining (mean in parentheses) ([1]; 3 mg/l NAA) | GUS Assay Results, visual rating of GUS staining (mean in parentheses) (strawberry leaf explants; 3 mg/l NAA) | GUS Assay Results, visual rating of GUS staining (mean in parentheses) ([2]; 3 mg/l NAA) |
| --- | --- | --- | --- | --- | --- | --- | --- | --- | --- | --- | --- | --- | --- | --- | --- |
| O=C(O)COc1ccc(Cl)cc1Cl [2,4-D] | 2,2,3 (2.3) | 0,0,0,0 (0) | 3,4,7,8 (5.5) | – | – | – | – | – | – | – | – | – | – | – | – |
| COc1cc(C(C)=O)cc(OC)c1O [AS, acetosyringone] | – | – | – | 0,0,0,0 (0) | 0,0,0,0 (0) | 0,0,0,0 (0) | 0,0,0,0 (0) | 0,0,0,0 (0) | 0,0,0,0 (0) | 0,0,0,0 (0) | 0,0,0,0 (0) | 0,0,1,2 (0.8) | – | – | – |
| O=C(O)Cc1c[nH]c2ccccc12 [IAA] | 0,4,4,6 (4.7) | 0,0,0,0 (0) | 5,8,9,9 (7.8) | – | – | – | – | – | – | – | – | – | – | – | – |
| O=C(O)Cc1cccc2ccccc12 [NAA] | 0,0,0,1 (0.3) | 0,0,0,0 (0) | 0,1,3,3 (1.8) | – | – | – | – | – | – | – | – | – | 0,1,2,4 (1.8) | 0,0,0,1 (0.3) | 3,6,6,6 (5.25) |
